Measured values reported in patent US20250002535A1, “PEPTIDE HYDROGEL COMPRISING HYDROPHILIC AZIDE-CONTAINING AMINO ACID AND ITS USE” (The United States of America, as represented by the …, priority 2023, published 2025).
Numbered stars: 1 amine (or outer) side, 2 acyl side, 3 side chain; on linkers, the order of the positions; unused ones are H or OH. Square brackets hold non-standard residues; d marks the D form. Peptide text beside a SMILES is read from it. X1 = [N-]=[N+]=NCCNCC[C@H](N[*:1])C(=O)[*:2]; Lys(N3) = [N-]=[N+]=NCCCC[C@H](N)C(=O)O

What was measured:
[1] = intrinsic hydrophilicity/hydrophobicity coefficient ΔtR(Gly) by RP-HPLC (procedure of Hodges et al.); assay type: physicochemical; settings: RP-HPLC retention of guest-residue peptide versus Gly standard; positive = more hydrophobic than Gly
Procedure: We then determined the intrinsic hydrophilicity/hydrophobicity coefficients (ΔtR(Gly)) for residue 1, ^N3K, and Lys according to the procedure of Hodges et al. to gain comparative insight into the hydrophilic nature of the new residue. […] Amino acids with side-chains more hydrophobic than Gly have positive ΔtR(Gly) values, and vice-versa.
RP-HPLC was performed with a solvent system of 0.1% TFA in Milli-Q H2O (Standard A) and 0.1% TFA in 9:1 CH3CN/H2O (Standard B). Analytical RPHPLC was performed on an Agilent 1200 series HPLC, using a Vydac 218TP C18 column (250×4.6 mm, 5 μm), with a linear gradient from 0 to 100% B at a rate of 1% B per min, at a flow rate of 0.25 mL/min and a column temperature of 40° C.

[2] = SPAAC ligation kinetics with BCN, second order conditions, NMR; settings: methanol at 25° C.
Procedure: The reaction kinetics of amino acid 1 in SPAAC with two strained cyclooctynes, DBCO and BCN, were determined in comparison with ^N3K. First, peptides 12 and 13, which contain residue 1 and ^N3K respectively, were independently ligated to PEG-functionalized DBCO. Rates were determined under pseudo-first order conditions by UV-vis spectroscopy at 308 nm (FIGS. 3A-3C, 7, 8). The calculated second order rate constant for peptide 12 was 0.34 M^−1 s^−1 in HBS buffer, pH 7.4 at 25° C., which is similar to previously reported rate constants for other azides. The ligation rate of peptide 12 is slightly slower than peptide 13 ([…]), which may be due to hydrophobic interactions between the ^N3K side-chain and the aromatic DBCO, facilitating ligation. […] We then determined the reaction rate of Boc-protected amino acid 2 itself with BCN in methanol at 25° C. […]
Solutions of BCN and amino acids were prepared in MeOD. The reaction between BCN and amino acids was measured under second order conditions using NMR. […] The reaction was monitored by ^1H NMR. Concentration of product ([P]) at each time point was determined by the integration of red proton in the product using blue proton as internal standard. The value of k2t was calculated by equation 1. With Prism software, second order rate constants, k2, was calculated by linear regression between k2t and time. […]

[3] = solubility in water by UV-vis spectroscopy before and after centrifugation; assay type: physicochemical; settings: 20 mg/mL was the highest concentration tested
Procedure: Residue 1's ability to enhance solubility was tested via the amphiphilic peptide 16, which contains 7 copies of 1 along with 9 hydrophobic Val residues. Here, we directly measured solubility via UV-vis spectroscopy of aqueous preparations of peptides before and after centrifugation (FIG. 2B). Peptide 16 (FIG. 5) was fully soluble in water at 20 mg/mL, the highest concentration tested, as was its Lys-containing control peptide 18. […] Further, peptides 16 and 18 had nearly identical RP-HPLC chromatograms (FIG. 6) indicating similar hydrophilic character. In contrast, the ^N3K-containing peptide 17 was completely insoluble in water at only 1 mg/mL, showing extensive light scattering before centrifugation and no scattering after, due to sedimentation of aggregates.

[4] = solubility of peptide powder in solvents; assay type: physicochemical
Description: Peptide 17: Insoluble powder in water and acetonitrile. It is soluble in Trifluoroethanol.

## NCCCC[C@H](N)C(=O)O [Lys]
[1]
  intrinsic hydrophilicity/hydrophobicity coefficient ΔtR(Gly): −0.04

## [N-]=[N+]=NCCNCC[C@H](N)C(=O)O [compound 1]
[1]
  intrinsic hydrophilicity/hydrophobicity coefficient ΔtR(Gly): 1.4

## CC(C)(C)OC(=O)N(CCN=[N+]=[N-])CC[C@H](NC(=O)OCC1c2ccccc2-c2ccccc21)C(=O)O [compound 2, (S)-2-((((9H-fluoren-9-yl)methoxy)carbonyl)amino)-4-((2-azidoethyl)(tertbutoxycarbonyl)-amino)butanoic acid]
[2]
  second order rate constant k2 with BCN: 0.28 M⁻¹ s⁻¹

## CC(C)[C@H](N)C(=O)N[C@@H](CCNCCN=[N+]=[N-])C(=O)N[C@H](C(=O)N[C@@H](CCNCCN=[N+]=[N-])C(=O)N[C@H](C(=O)N[C@@H](CCNCCN=[N+]=[N-])C(=O)N[C@H](C(=O)N[C@@H](CCNCCN=[N+]=[N-])C(=O)N[C@H](C(=O)N1CCC[C@@H]1C(=O)N1CCC[C@H]1C(=O)N[C@H](C(=O)N[C@@H](CCNCCN=[N+]=[N-])C(=O)N[C@H](C(=O)N[C@@H](CCC(=O)O)C(=O)N[C@H](C(=O)N[C@@H](CCNCCN=[N+]=[N-])C(=O)N[C@H](C(=O)N[C@@H](CCNCCN=[N+]=[N-])C(=O)N[C@H](C(N)=O)C(C)C)C(C)C)C(C)C)C(C)C)[C@@H](C)O)C(C)C)C(C)C)C(C)C)C(C)C [peptide 16, VZVZVZVZV^DPPTZVEVZVZV-NH2] (H-V[X1]V[X1]V[X1]V[X1]V[dP]PT[X1]VEV[X1]V[X1]V-NH2)
[3]
  solubility: ≥ 20 mg/mL

## CC(C)[C@H](N)C(=O)N[C@@H](CCCCN=[N+]=[N-])C(=O)N[C@H](C(=O)N[C@@H](CCCCN=[N+]=[N-])C(=O)N[C@H](C(=O)N[C@@H](CCCCN=[N+]=[N-])C(=O)N[C@H](C(=O)N[C@@H](CCCCN=[N+]=[N-])C(=O)N[C@H](C(=O)N1CCC[C@@H]1C(=O)N1CCC[C@H]1C(=O)N[C@H](C(=O)N[C@@H](CCCCN=[N+]=[N-])C(=O)N[C@H](C(=O)N[C@@H](CCC(=O)O)C(=O)N[C@H](C(=O)N[C@@H](CCCCN=[N+]=[N-])C(=O)N[C@H](C(=O)N[C@@H](CCCCN=[N+]=[N-])C(=O)N[C@H](C(N)=O)C(C)C)C(C)C)C(C)C)C(C)C)[C@@H](C)O)C(C)C)C(C)C)C(C)C)C(C)C [peptide 17] (H-V[Lys(N3)]V[Lys(N3)]V[Lys(N3)]V[Lys(N3)]V[dP]PT[Lys(N3)]VEV[Lys(N3)]V[Lys(N3)]V-NH2)
[4]
  solubility in Trifluoroethanol: soluble
  solubility in water and acetonitrile: Insoluble
[3]
  solubility: < 1 mg/mL

## CC(C)[C@H](N)C(=O)N[C@@H](CCCCN)C(=O)N[C@H](C(=O)N[C@@H](CCCCN)C(=O)N[C@H](C(=O)N[C@@H](CCCCN)C(=O)N[C@H](C(=O)N[C@@H](CCCCN)C(=O)N[C@H](C(=O)N1CCC[C@@H]1C(=O)N1CCC[C@H]1C(=O)N[C@H](C(=O)N[C@@H](CCCCN)C(=O)N[C@H](C(=O)N[C@@H](CCC(=O)O)C(=O)N[C@H](C(=O)N[C@@H](CCCCN)C(=O)N[C@H](C(=O)N[C@@H](CCCCN)C(=O)N[C@H](C(N)=O)C(C)C)C(C)C)C(C)C)C(C)C)[C@@H](C)O)C(C)C)C(C)C)C(C)C)C(C)C [peptide 18] (H-VKVKVKVKV[dP]PTKVEVKVKV-NH2; N-terminus assumed)
[3]
  solubility: ≥ 20 mg/mL
